Results on 21 compounds are retold here after patent US10745382B2 (BRISTOL-MYERS SQUIBB COMPANY, priority 2015, dated 2020).

The structures appear in SMILES notation. Where two headings read alike, the source gives them in different places.

In the assay the target is T1, PD-1/PD-L1 (Homo sapiens, UniProt Q9NZQ7).
T1 construct: made in house; host or cells: HEK293T
The assay is described as follows: PD-1/PD-L1 Homogenous Time-Resolved Fluorescence (HTRF) binding assay. Conditions: PD-L1-His 10 nM, PD-1-Ig 20 nM, read-out: Range or IC50. In short, it runs like this:
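Binding was measured by HTRF in dPBS with 0.1% BSA and 0.05% Tween-20. Detection used europium cryptate anti-Ig (1 nM final) and APC anti-His (20 nM final) added over the binding reaction.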
Background: TR-FRET usually uses a lanthanide donor and a delayed reading to cut background.

T1 sequence (Q9NZQ7 with tags, fused parts or gaps): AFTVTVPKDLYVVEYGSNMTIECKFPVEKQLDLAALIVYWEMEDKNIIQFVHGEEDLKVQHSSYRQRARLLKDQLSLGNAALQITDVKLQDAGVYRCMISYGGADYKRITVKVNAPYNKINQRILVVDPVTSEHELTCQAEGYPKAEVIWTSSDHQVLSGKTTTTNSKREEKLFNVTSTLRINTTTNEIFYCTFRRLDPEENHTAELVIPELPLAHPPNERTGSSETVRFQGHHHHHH

A word on the IC50: it is the concentration needed to halve the response being measured. For `Cc1c(COCCN2CC[C@@H](O)C2)cccc1-c1cccc(COc2cc(OCc3cncc(C#N)c3)c(CNC(CO)(CO)CO)cc2Cl)c1C` [Example 4125, (R)-5-((4-chloro-2-(((1,3-dihydroxy-2-(hydroxymethyl)propan-2-yl)amino)methyl)-5-((3′-((2-(3-hydroxypyrrolidin-1-yl)ethoxy)methyl)-2,2′-dimethyl-[1,1′-biphenyl]-3-yl)methoxy)phenoxy)methyl)nicotinonitrile], the half-maximal inhibitory concentration (IC50) (value given as range class) was 0.21 to 10 nM.

Turning to `Cc1c(COCCN2CC[C@@H](O)C2)cccc1-c1cccc(COc2cc(OCc3cncc(C#N)c3)c(CN3CCCC[C@H]3C(=O)O)cc2Cl)c1C` [Example 4126, (S)-1-(5-chloro-2-((5-cyanopyridin-3-yl)methoxy)-4-((3′-((2-((R)-3-hydroxypyrrolidin-1-yl)ethoxy)methyl)-2,2′-dimethyl-[1,1′-biphenyl]-3-yl)methoxy)benzyl)piperidine-2-carboxylic Acid], where the note is “value given as range class”, the half-inhibitory concentration (IC50) fell in the range of 0.21 to 10 nM. For the compound `Cc1c(COCCN2CC[C@@H](O)C2)cccc1-c1cccc(COc2cc(OCc3cncc(C#N)c3)c(CN(C)C(CO)CO)cc2Cl)c1C` [Example 4127, (R)-5-((4-chloro-2-(((1,3-dihydroxypropan-2-yl)(methyl)amino)methyl)-5-((3′-((2-(3-hydroxypyrrolidin-1-yl)ethoxy)methyl)-2,2′-dimethyl-[1,1′-biphenyl]-3-yl)methoxy)phenoxy)methyl)nicotinonitrile], the IC50 (value given as range class) was 0.21 to 10 nM. For the compound `Cc1c(COCCN2CC[C@@H](O)C2)cccc1-c1cccc(COc2cc(OCc3cncc(C#N)c3)c(CN(C)C(C)(CO)CO)cc2Cl)c1C` [Example 4128, (R)-5-((4-chloro-2-(((1,3-dihydroxy-2-methylpropan-2-yl)(methyl)amino)methyl)-5-((3′-((2-(3-hydroxypyrrolidin-1-yl)ethoxy)methyl)-2,2′-dimethyl-[1,1′-biphenyl]-3-yl)methoxy)phenoxy)methyl)nicotinonitrile], for the setting “value given as range class”, the 50% inhibitory concentration (IC50) was 0.21 to 10 nM. In the case of `Cc1c(COCCN2CC[C@@H](O)C2)cccc1-c1cccc(COc2cc(OCc3cncc(C#N)c3)c(CN(C)C3(C(=O)O)CC3)cc2Cl)c1C` [Example 4129, (R)-1-((5-chloro-2-((5-cyanopyridin-3-yl)methoxy)-4-((3′-((2-(3-hydroxypyrrolidin-1-yl)ethoxy)methyl)-2,2′-dimethyl-[1,1′-biphenyl]-3-yl)methoxy)benzyl)(methyl)amino)cyclopropane-1-carboxylic Acid], the half-inhibitory concentration (IC50) (value given as range class) was in the range of 0.21 to 10 nM. Still for that read-out and setting: the value for `Cc1c(COCCN2CC[C@@H](O)C2)cccc1-c1cccc(COc2cc(OCc3cncc(C#N)c3)c(CN(C)[C@@H](CO)C(=O)O)cc2Cl)c1C` [Example 4130, N-(5-chloro-2-((5-cyanopyridin-3-yl)methoxy)-4-((3′-((2-((R)-3-hydroxypyrrolidin-1-yl)ethoxy)methyl)-2,2′-dimethyl-[1,1′-biphenyl]-3-yl)methoxy)benzyl)-N-methyl-L-serine] was 0.21 to 10 nM; that for `Cc1c(COCCN2CC[C@@H](O)C2)cccc1-c1cccc(COc2cc(OCc3cncc(C#N)c3)c(CNC(C)(CO)CO)cc2Cl)c1C` [Example 4131, (R)-5-((4-chloro-2-(((1,3-dihydroxy-2-methylpropan-2-yl)amino)methyl)-5-((3′-((2-(3-hydroxypyrrolidin-1-yl)ethoxy)methyl)-2,2′-dimethyl-[1,1′-biphenyl]-3-yl)methoxy)phenoxy)methyl)nicotinonitrile] was 0.21 to 10 nM. The same measure, in the same setting: with `Cc1c(COc2cc(OCc3cncc(C#N)c3)c(CN(C)[C@@H](C)C(=O)O)cc2Cl)cccc1-c1cccc(OCCCN2CC[C@@H](O)C2)c1C` [Example 4132, N-(5-chloro-2-((5-cyanopyridin-3-yl)methoxy)-4-((3′-(3 ((R)-3-hydroxypyrrolidin-1-yl)propoxy)-2,2′-dimethyl-[1,1′-biphenyl]-3-yl)methoxy)benzyl)-N-methyl-L-alanine] the figure was 0.21 to 10 nM. On the same count and under the same terms, the value for `CC[C@@H](C(=O)O)N(C)Cc1cc(Cl)c(OCc2cccc(-c3cccc(OCCCN4CC[C@@H](O)C4)c3C)c2C)cc1OCc1cncc(C#N)c1` [Example 4133, (S)-2-((5-chloro-2-((5-cyanopyridin-3-yl)methoxy)-4-((3′-(3-((R)-3-hydroxypyrrolidin-1-yl)propoxy)-2,2′-dimethyl-[1,1′-biphenyl]-3-yl)methoxy)benzyl)(methyl)amino)butanoic Acid] was 0.21 to 10 nM; that for `Cc1c(COc2cc(OCc3cncc(C#N)c3)c(CN(C)C3(C(=O)O)CC3)cc2Cl)cccc1-c1cccc(OCCCN2CC[C@@H](O)C2)c1C` [Example 4134, (R)-1-((5-chloro-2-((5-cyanopyridin-3-yl)methoxy)-4-((3′-(3-(3-hydroxypyrrolidin-1-yl)propoxy)-2,2′-dimethyl-[1,1′-biphenyl]-3-yl)methoxy)benzyl)(methyl)amino)cyclopropane-1-carboxylic Acid] was 0.21 to 10 nM. On to `Cc1c(COc2cc(OCc3cncc(C#N)c3)c(CN(C)[C@@H](CCO)C(=O)O)cc2Cl)cccc1-c1cccc(OCCCN2CC[C@@H](O)C2)c1C` [Example 4135, N-(5-chloro-2-((5-cyanopyridin-3-yl)methoxy)-4-((3′-(3-((R)-3-hydroxypyrrolidin-1-yl)propoxy)-2,2′-dimethyl-[1,1′-biphenyl]-3-yl)methoxy)benzyl)-N-methyl-L-homoserine], for which the IC50 (value given as range class) fell in the range of 0.21 to 10 nM. Take `Cc1c(COc2cc(OCc3cncc(C#N)c3)c(CN(C)[C@@H](CO)C(=O)O)cc2Cl)cccc1-c1cccc(OCCCN2CC[C@@H](O)C2)c1C` [Example 4136, N-(5-chloro-2-((5-cyanopyridin-3-yl)methoxy)-4-((3′-(3-((R)-3-hydroxypyrrolidin-1-yl)propoxy)-2,2′-dimethyl-[1,1′-biphenyl]-3-yl)methoxy)benzyl)-N-methyl-L-serine]: the concentration for half-maximal inhibition (IC50) (value given as range class) fell in the range of 0.21 to 10 nM.

Turning to `Cc1c(COc2cc(OCc3cncc(C#N)c3)c(C(C)NC(CO)CO)cc2Cl)cccc1-c1cccc(OCCCN2CC[C@@H](O)C2)c1C` (stereo partly drawn) [Example 4137, 5-((4-chloro-2-(1-((1,3-dihydroxypropan-2-yl)amino)ethyl)-5-((3′-(3-((R)-3-hydroxypyrrolidin-1-yl)propoxy)-2,2′-dimethyl-[1,1′-biphenyl]-3-yl)methoxy)phenoxy)methyl)nicotinonitrile], under “numeric IC50”, the IC50 is 3 nM. Regarding `Cc1c(COc2cc(OCc3cncc(C#N)c3)c(C(C)N3C[C@H](O)C[C@H]3C(=O)O)cc2Cl)cccc1-c1cccc(OCCCN2CC[C@@H](O)C2)c1C` (stereo partly drawn) [Example 4138, (2S,4R)-1-(1-(5-chloro-2-((5-cyanopyridin-3-yl)methoxy)-4-((3′-(3-((R)-3-hydroxypyrrolidin-1-yl)propoxy)-2,2′-dimethyl-[1,1′-biphenyl]-3-yl)methoxy)phenyl)ethyl)-4-hydroxypyrrolidine-2-carboxylic Acid], the half-inhibitory concentration (IC50) (value given as range class) fell in the range of 0.21 to 10 nM.

Regarding `Cc1c(COc2cc(OCc3cncc(C#N)c3)c(C(C)N(C)[C@@H](CO)C(=O)O)cc2Cl)cccc1-c1cccc(OCCCN2CC[C@@H](O)C2)c1C` (stereo partly drawn) [Example 4139, N-(1-(5-chloro-2-((5-cyanopyridin-3-yl)methoxy)-4-((3′-(3-((R)-3-hydroxypyrrolidin-1-yl)propoxy)-2,2′-dimethyl-[1,1′-biphenyl]-3-yl)methoxy)phenyl)ethyl)-N-methyl-L-serine], the IC50 (value given as range class) fell in the range of 0.21 to 10 nM. For the compound `Cc1c(COc2cc(OCc3cncc(C#N)c3)c(C(C)N(C)C(CO)CO)cc2Cl)cccc1-c1cccc(OCCCN2CC[C@@H](O)C2)c1C` (stereo partly drawn) [Example 4140, 5-((4-chloro-2-(1-((1,3-dihydroxypropan-2-yl)(methyl)amino)ethyl)-5-((3′-(3-((R)-3-hydroxypyrrolidin-1-yl)propoxy)-2,2′-dimethyl-[1,1′-biphenyl]-3-yl)methoxy)phenoxy)methyl)nicotinonitrile], the IC50 (value given as range class) was in the range of 0.21 to 10 nM. On to `Cc1c(COc2cc(OCc3cncc(C#N)c3)c(C(C)N[C@@H](CO)C(=O)O)cc2Cl)cccc1-c1cccc(OCCCN2CC[C@@H](O)C2)c1C` (stereo partly drawn) [Example 4141, (1-(5-chloro-2-((5-cyanopyridin-3-yl)methoxy)-4-((3′-(3-((R)-3-hydroxypyrrolidin-1-yl)propoxy)-2,2′-dimethyl-[1,1′-biphenyl]-3-yl)methoxy)phenyl)ethyl)-L-serine], for which the 50% inhibitory concentration (IC50) (value given as range class) was 0.21 to 10 nM.

For the compound `Cc1c(COc2cc(OCc3cncc(C#N)c3)c(CNCC(=O)O)cc2Cl)cccc1-c1cccc(OCCCN2CC[C@@H](O)C2)c1C` [Example 4147, (R)-(5-chloro-2-((5-cyanopyridin-3-yl)methoxy)-4-((3′-(3-(3-hydroxypyrrolidin-1-yl)propoxy)-2,2′-dimethyl-[1,1′-biphenyl]-3-yl)methoxy)benzyl)glycine], for the setting “value given as range class”, the IC50 fell in the range of 0.21 to 10 nM. The same measure, in the same setting: the value for `Cc1c(COc2cc(OCc3cncc(C#N)c3)c(CN[C@H](C(=O)O)[C@@H](C)O)cc2Cl)cccc1-c1cccc(OCCCN2CC[C@@H](O)C2)c1C` [Example 4148, (5-chloro-2-((5-cyanopyridin-3-yl)methoxy)-4-((3′-(3-((R)-3-hydroxypyrrolidin-1-yl)propoxy)-2,2′-dimethyl-[1,1′-biphenyl]-3-yl)methoxy)benzyl)-L-threonine] was 0.21 to 10 nM; that for `Cc1c(COc2cc(OCc3cncc(C#N)c3)c(CNCCC(=O)O)cc2Cl)cccc1-c1cccc(OCCCN2CC[C@@H](O)C2)c1C` [Example 4149, (R)-3-((5-chloro-2-((5-cyanopyridin-3-yl)methoxy)-4-((3′-(3-(3-hydroxypyrrolidin-1-yl)propoxy)-2,2′-dimethyl-[1,1′-biphenyl]-3-yl)methoxy)benzyl)amino)propanoic Acid] was 0.21 to 10 nM; that for `Cc1c(COc2cc(OCc3cncc(C#N)c3)c(CN[C@H](C(=O)O)C(C)C)cc2Cl)cccc1-c1cccc(OCCCN2CC[C@@H](O)C2)c1C` [Example 4150, (5-chloro-2-((5-cyanopyridin-3-yl)methoxy)-4-((3′-(3-((R)-3-hydroxypyrrolidin-1-yl)propoxy)-2,2′-dimethyl-[1,1′-biphenyl]-3-yl)methoxy)benzyl)-L-valine] was 0.21 to 10 nM.
